According to PubChem BioAssay (NCI):
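The compound was tested at five concentrations on cells cultured in 96-well plates, with a 48-hour exposure period. At the GI50, growth is halved. Definition used: TGI = concentration required for complete inhibition of growth.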

Columns and labels:
Test in all cases: NCI anticancer screen, dose series, 48 h
COLO 205 colon = tested on: COLO 205 colon
SNB-19 CNS = tested on: SNB-19 CNS
NCI/ADR-RES ovarian = tested on: NCI/ADR-RES ovarian
OVCAR-4 ovarian = tested on: OVCAR-4 ovarian
SK-MEL-2 melanoma = tested on: SK-MEL-2 melanoma
UACC-257 melanoma = tested on: UACC-257 melanoma
MOLT-4 leukemia = tested on: MOLT-4 leukemia
EKVX NSCLC = tested on: EKVX NSCLC
SNB-75 CNS = tested on: SNB-75 CNS
T-47D breast = tested on: T-47D breast
SN12C renal = tested on: SN12C renal
A498 renal = tested on: A498 renal
MDA-MB-435 = tested on: MDA-MB-435
HCT-15 colon = tested on: HCT-15 colon
MDA-MB-231 breast = tested on: MDA-MB-231 breast
UO-31 renal = tested on: UO-31 renal
OVCAR-8 ovarian = tested on: OVCAR-8 ovarian
RXF 393 renal = tested on: RXF 393 renal
IGROV1 ovarian = tested on: IGROV1 ovarian
KM12 colon = tested on: KM12 colon
TK-10 renal = tested on: TK-10 renal
OVCAR-3 ovarian = tested on: OVCAR-3 ovarian
SF-295 CNS = tested on: SF-295 CNS
SW-620 colon = tested on: SW-620 colon
HOP-62 NSCLC = tested on: HOP-62 NSCLC
M14 melanoma = tested on: M14 melanoma
SR leukemia = tested on: SR leukemia
SF-539 CNS = tested on: SF-539 CNS
A549 NSCLC = tested on: A549 NSCLC
K-562 leukemia = tested on: K-562 leukemia
HS 578T breast = tested on: HS 578T breast
HL-60(TB) leukemia = tested on: HL-60(TB) leukemia
CCRF-CEM leukemia = tested on: CCRF-CEM leukemia
PC-3 prostate = tested on: PC-3 prostate
NCI-H522 lung = tested on: NCI-H522 lung
LOX IMVI melanoma = tested on: LOX IMVI melanoma
UACC-62 melanoma = tested on: UACC-62 melanoma
MCF7 breast = tested on: MCF7 breast
NCI-H460 lung = tested on: NCI-H460 lung
MALME-3M melanoma = tested on: MALME-3M melanoma
NCI-H23 lung = tested on: NCI-H23 lung
786-0 renal = tested on: 786-0 renal
HOP-92 NSCLC = tested on: HOP-92 NSCLC
OVCAR-5 ovarian = tested on: OVCAR-5 ovarian
SK-MEL-28 melanoma = tested on: SK-MEL-28 melanoma
U251 CNS = tested on: U251 CNS
ACHN renal = tested on: ACHN renal
HCT-116 colon = tested on: HCT-116 colon
RPMI-8226 leukemia = tested on: RPMI-8226 leukemia
SK-OV-3 ovarian = tested on: SK-OV-3 ovarian
HT29 colon = tested on: HT29 colon
NCI-H226 lung = tested on: NCI-H226 lung
SF-268 CNS = tested on: SF-268 CNS
BT-549 breast = tested on: BT-549 breast
SK-MEL-5 melanoma = tested on: SK-MEL-5 melanoma
HCC-2998 colon = tested on: HCC-2998 colon
CAKI-1 renal = tested on: CAKI-1 renal
DU-145 prostate = tested on: DU-145 prostate

## CN1C(=O)N(C)C2C1NN=c1s/c(=C\c3ccc(Cl)cc3Cl)c(=O)n12 (stereo not given)
COLO 205 colon
  GI50: 95.1 nM
  TGI: 2580 nM
SNB-19 CNS
  GI50: 339 nM
  TGI: > 100000 nM
NCI/ADR-RES ovarian
  GI50: 130 nM
  TGI: 18100 nM
OVCAR-4 ovarian
  GI50: 1660 nM
  TGI: > 78900 nM
SK-MEL-2 melanoma
  GI50: 11700 nM
  TGI: > 100000 nM
UACC-257 melanoma
  GI50: 12200 nM
  TGI: > 100000 nM
MOLT-4 leukemia
  GI50: 363 nM
  TGI: > 100000 nM
EKVX NSCLC
  GI50: 425 nM
  TGI: > 100000 nM
SNB-75 CNS
  GI50: 27.4 nM
  TGI: 2320 nM
T-47D breast
  GI50: 57.6 nM
  TGI: > 100000 nM
SN12C renal
  GI50: 422 nM
  TGI: > 100000 nM
A498 renal
  GI50: 67 nM
  TGI: 653 nM
MDA-MB-435
  GI50: 33.3 nM
  TGI: 2110 nM
HCT-15 colon
  GI50: 88.2 nM
  TGI: > 100000 nM
MDA-MB-231 breast
  GI50: 479 nM
  TGI: 19600 nM
UO-31 renal
  GI50: 892 nM
  TGI: > 71800 nM
OVCAR-8 ovarian
  GI50: 399 nM
  TGI: > 100000 nM
RXF 393 renal
  GI50: 86.2 nM
  TGI: 925 nM
IGROV1 ovarian
  GI50: 326 nM
  TGI: > 50100 nM
KM12 colon
  GI50: 134 nM
  TGI: > 75400 nM
TK-10 renal
  GI50: 10200 nM
  TGI: > 92400 nM
OVCAR-3 ovarian
  GI50: 104 nM
  TGI: 11200 nM
SF-295 CNS
  GI50: 57.9 nM
  TGI: 15300 nM
SW-620 colon
  GI50: 109 nM
  TGI: > 100000 nM
HOP-62 NSCLC
  GI50: 116 nM
  TGI: 30200 nM
M14 melanoma
  GI50: 167 nM
  TGI: > 37900 nM
SR leukemia
  GI50: 55.7 nM
  TGI: > 100000 nM
SF-539 CNS
  GI50: 131 nM
  TGI: 3250 nM
A549 NSCLC
  GI50: 243 nM
  TGI: > 100000 nM
K-562 leukemia
  GI50: 47.3 nM
  TGI: > 50700 nM
HS 578T breast
  GI50: 173 nM
  TGI: > 92600 nM
HL-60(TB) leukemia
  GI50: 264 nM
CCRF-CEM leukemia
  GI50: 262 nM
  TGI: > 100000 nM
PC-3 prostate
  GI50: 167 nM
  TGI: > 100000 nM
NCI-H522 lung
  GI50: 95.8 nM
  TGI: > 57800 nM
LOX IMVI melanoma
  GI50: 159 nM
  TGI: > 100000 nM
UACC-62 melanoma
  GI50: 70.9 nM
  TGI: > 65200 nM
MCF7 breast
  GI50: 45 nM
  TGI: > 48300 nM
NCI-H460 lung
  GI50: 199 nM
  TGI: > 94300 nM
MALME-3M melanoma
  GI50: 1210 nM
  TGI: > 81600 nM
NCI-H23 lung
  GI50: 370 nM
  TGI: 52900 nM
786-0 renal
  GI50: 703 nM
  TGI: > 48800 nM
HOP-92 NSCLC
  GI50: 406 nM
  TGI: 79400 nM
OVCAR-5 ovarian
  GI50: 601 nM
  TGI: > 100000 nM
SK-MEL-28 melanoma
  GI50: 4260 nM
  TGI: > 94600 nM
U251 CNS
  GI50: 192 nM
  TGI: > 100000 nM
ACHN renal
  GI50: 236 nM
  TGI: > 100000 nM
HCT-116 colon
  GI50: 131 nM
  TGI: > 40200 nM
RPMI-8226 leukemia
  GI50: 364 nM
  TGI: 16300 nM
SK-OV-3 ovarian
  GI50: 754 nM
  TGI: > 100000 nM
HT29 colon
  GI50: 117 nM
  TGI: > 100000 nM
NCI-H226 lung
  GI50: 623 nM
  TGI: > 100000 nM
SF-268 CNS
  GI50: 1660 nM
  TGI: > 100000 nM
BT-549 breast
  GI50: 264 nM
  TGI: 12800 nM
SK-MEL-5 melanoma
  GI50: 167 nM
  TGI: 1780 nM
HCC-2998 colon
  GI50: 281 nM
  TGI: 15500 nM
CAKI-1 renal
  GI50: 60.8 nM
  TGI: > 62300 nM
DU-145 prostate
  GI50: 334 nM
  TGI: > 20500 nM

## COc1ccc(-c2nc3ccc(-c4nc5ccc(N6CCN(c7ccccc7)CC6)cc5[nH]4)cc3[nH]2)cc1OC
COLO 205 colon
  GI50: 770 nM
  TGI: 2810 nM
SNB-19 CNS
  GI50: 1930 nM
  TGI: 3590 nM
NCI/ADR-RES ovarian
  GI50: > 100000 nM
  TGI: > 100000 nM
OVCAR-4 ovarian
  GI50: 1520 nM
  TGI: 3040 nM
SK-MEL-2 melanoma
  GI50: 2040 nM
  TGI: 4070 nM
UACC-257 melanoma
  GI50: 2050 nM
  TGI: 4400 nM
MOLT-4 leukemia
  GI50: 1370 nM
  TGI: 6470 nM
EKVX NSCLC
  GI50: 2290 nM
  TGI: 5070 nM
SNB-75 CNS
  GI50: 1060 nM
  TGI: 3800 nM
T-47D breast
  GI50: 1680 nM
  TGI: 5190 nM
SN12C renal
  GI50: 5980 nM
  TGI: 18600 nM
A498 renal
  GI50: 2930 nM
  TGI: 9630 nM
MDA-MB-435
  GI50: 1730 nM
  TGI: 3320 nM
HCT-15 colon
  GI50: 5130 nM
  TGI: > 100000 nM
MDA-MB-231 breast
  GI50: 2480 nM
  TGI: 5050 nM
UO-31 renal
  GI50: 51400 nM
  TGI: > 100000 nM
OVCAR-8 ovarian
  GI50: 1520 nM
  TGI: 4560 nM
RXF 393 renal
  GI50: 1590 nM
  TGI: 3410 nM
IGROV1 ovarian
  GI50: 1650 nM
  TGI: 3440 nM
KM12 colon
  GI50: 1840 nM
  TGI: 4010 nM
TK-10 renal
  GI50: 2200 nM
  TGI: 4420 nM
OVCAR-3 ovarian
  GI50: 2040 nM
  TGI: 3640 nM
SF-295 CNS
  GI50: 1730 nM
  TGI: 4020 nM
SW-620 colon
  GI50: 1150 nM
  TGI: 2710 nM
HOP-62 NSCLC
  GI50: 2040 nM
  TGI: 6580 nM
M14 melanoma
  GI50: 1690 nM
  TGI: 6320 nM
SR leukemia
  GI50: 341 nM
  TGI: 2830 nM
SF-539 CNS
  GI50: 1370 nM
  TGI: 2810 nM
A549 NSCLC
  GI50: 2030 nM
  TGI: 6730 nM
K-562 leukemia
  GI50: 366 nM
  TGI: 2920 nM
HS 578T breast
  GI50: 2250 nM
  TGI: 4930 nM
HL-60(TB) leukemia
  GI50: 1780 nM
  TGI: 10200 nM
CCRF-CEM leukemia
  TGI: 2540 nM
PC-3 prostate
  GI50: 1590 nM
  TGI: 3260 nM
NCI-H522 lung
  GI50: 1810 nM
  TGI: 4150 nM
LOX IMVI melanoma
  GI50: 357 nM
  TGI: 1340 nM
UACC-62 melanoma
  GI50: 1410 nM
  TGI: 3630 nM
MCF7 breast
  GI50: 138 nM
  TGI: 649 nM
NCI-H460 lung
  GI50: 1730 nM
  TGI: 3660 nM
MALME-3M melanoma
  GI50: 1050 nM
  TGI: 2520 nM
NCI-H23 lung
  GI50: 1770 nM
  TGI: 3660 nM
786-0 renal
  GI50: 1620 nM
  TGI: 3120 nM
HOP-92 NSCLC
  GI50: 1280 nM
  TGI: 4000 nM
OVCAR-5 ovarian
  GI50: 2210 nM
  TGI: 4480 nM
SK-MEL-28 melanoma
  GI50: 1660 nM
  TGI: 3240 nM
U251 CNS
  GI50: 1200 nM
  TGI: 3020 nM
ACHN renal
  GI50: 2280 nM
  TGI: 10200 nM
HCT-116 colon
  GI50: 281 nM
  TGI: 1110 nM
RPMI-8226 leukemia
  GI50: 190 nM
  TGI: 2300 nM
SK-OV-3 ovarian
  GI50: 5340 nM
  TGI: 18600 nM
HT29 colon
  GI50: 1200 nM
  TGI: 2680 nM
NCI-H226 lung
  GI50: 14500 nM
  TGI: 32600 nM
SF-268 CNS
  GI50: 2120 nM
  TGI: 4680 nM
BT-549 breast
  GI50: 3310 nM
  TGI: 10900 nM
SK-MEL-5 melanoma
  GI50: 1470 nM
  TGI: 3310 nM
HCC-2998 colon
  GI50: 1720 nM
  TGI: 3340 nM
CAKI-1 renal
  GI50: 2180 nM
  TGI: 8020 nM
DU-145 prostate
  GI50: 1830 nM
  TGI: 3460 nM
